Test system: ornithine decarboxylase (ODC)
Assay: Ornithine decarboxylase (ODC) assay: inhibition of TPA induction of ODC activity
Assay type: cell-based
Description: A classic measure of retinoic acid activity involves measuring the effects of refinoic acid on ornithine decarboxylase (ODC). The original work on the correlation between retinoic acid and decrease in cell proliferation was done by Verma & Boutwell, Cancer Research, 1977,37, 2196-2201. That reference discloses that ornithine decarboxylase activity increased precedent to polyamine biosynthesis. It has been established elsewhere that increases in polyamine synthesis can be correlated or associated with cellular proliferation. Thus, if ODC activity could be inhibited, cell hyperproliferation could be modulated. Although all cases for ODC activity increases are unknown, it is known that 12-O-tetradecanoylphorbol-13-acetate (TPA) induces ODC activity. Retinoic acid inhibits this induction of ODC activity by TPA. […] “IC60” is that concentration of the test compound which causes 60% inhibition in the ODC assay. By analogy, “IC80”, for example, is that concentration of the test compound which causes 80% inhibition in the ODC assay.

Row | IC80 (footnote 1: IC80, read-out: IC80 (concentration of the test compound which causes 80% inhibition in the ODC assay)) [nM] | IC60 (concentration of the test compound which causes 60% inhibition in the ODC assay) (footnote 2: IC60) | Compound
1 | 0.46 |  | CCOC(=O)c1ccc(C#C/C=C/C2=C(O[Si](C)(C)C)CCCC2(C)C)cc1 [Compound 1, Ethyl (±)-(E)-4-(4-(6,6-dimethyl-2-(trimethylsily)oxycyclohex-1-enyl)but-3-en-1-yn-yl)benzoate]
2 |  | 0.3^2 nanomolar | CCOC(=O)c1ccc(C#C/C=C/C2=C(C(=O)OC)CCCC2(C)C)cc1 [Compound 6, Ethyl (E)-4-(4-(6-Carbomethoxy-2,2-dimethylcyclohex-1-enyl)but-3-en-1-yn-yl)benzoate]
